Results published in PubChem BioAssay AID179 (DTP/NCI, 2004).
Active and inactive are the calls of the source.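 The calls were made as follows: active = compounds giving half or more protection of infected cells from virus-caused growth loss, again on retest; inactive = the rest.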 *1 amine or outer side, *2 acyl side, *3 side chain or, on linkers, in order; H or OH if unused. Where a SMILES comes first, the peptide text is derived from it. [ ]: non-standard residue; d: D form. The star is where a group is joined. Trt = c1ccc(C(c2ccccc2)(c2ccccc2)*)cc1; X3 = CC(=O)N(C)SCC(N[*:1])C(=O)[*:2]; Cbz = O=C(OCc1ccccc1)*; Bn = c1ccc(C*)cc1; OtBu = CC(C)(C)O*; X14 = CC(C)COC*; For = O=C*

Tested on: CEM cells HIV-1 protection, formazan growth assay
Assay: NCI AIDS Antiviral Assay
Conditions: for IC50: measured here: growth of uninfected CEM cells
In short: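 Protection of CEM cells against HIV-1 measured as cell growth via soluble formazan read-out, with five concentrations tested on both infected and uninfected cells; failure to protect may reflect toxicity.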

SMILES | EC50 | IC50 | outcome
C/C(O)=C(\C=N/C(=S)Nc1ccccc1)C(=O)Nc1ccccc1 | > 200 µM | > 200 µM | –
O=C1C=CC2O[C@H](c3ccccc3)[C@@H](O)C2O1 (stereo not given in full) | > 1070 µM | 6.46 µM | –
Nc1nccc(CCc2ccccc2)n1 | > 36.3 µM | > 36.3 µM | –
N#C/C(=C/NC(=S)NCc1ccccc1)C(N)=O | > 200 µM | > 200 µM | –
CCCCCCSCC/C(C)=N\OC | > 200 µM | > 200 µM | –
N#C/C(=C/C=C/c1ccco1)C(N)=O | > 200 µM | > 200 µM | –
CCOC(=O)CC1(C)c2nc(NC(C)=O)sc2Cc2sc(NC(C)=O)nc21 | > 200 µM | 186 µM | –
C[P+]1(CCc2ccc(Cl)cc2)CC=CC1 | – | – | inactive
CCC1(CC)C(=O)N(C(=O)c2ccccc2)N(C(=O)c2ccc(Cl)cc2)C1=O | > 200 µM | 50.1 µM | –
CC(SC(=N)N)C(=N)N (stereo not given) | > 200 µM | > 200 µM | –
CCCCCCCCCCCCCCCCCCOC(COP(=O)(O)OCC1CCC(n2cnc3c(=O)[nH]cnc32)O1)COP(=O)(O)OCC1OC(n2cc(C)c(=O)[nH]c2=O)CC1N=[N+]=[N-] (stereo not given) | 1.17 µM | 162 µM | –
CC(=O)N(C)SCC(NC(=O)C(Cc1ccccc1)NC(=O)OCc1ccccc1)C(=O)NC(Cc1ccccc1)C(=O)NC(Cc1cn(C=O)c2ccccc12)C(=O)NC(CCCCNC(=O)OCc1ccccc1)C(=O)NC(C(=O)NC(CSN(C)C(C)=O)C(=O)NC(C(N)=O)C(C)OCc1ccccc1)C(C)OCc1ccccc1 (stereo not given) (Cbz-F[X3]FW(For)K(Cbz)T(Bn)[X3]T(Bn)-NH2; configuration not given here) | > 100 µM | > 100 µM | –
CC(C)COCSCC(NC(=O)CNC(=O)C(Cc1ccccc1)NC(=O)CNC(=O)C(N)CSC(c1ccccc1)(c1ccccc1)c1ccccc1)C(=O)NC(Cc1ccccc1)C(=O)NCC(=O)OC(C)(C)C (stereo not given) (H-C(Trt)GFGC(X14)FG-OtBu; configuration not given here) | > 24 µM | > 24 µM | –
CCCCCCCCCCCCCCCCC(C(=O)O)S(=O)(=O)O (stereo not given) | > 200 µM | 112 µM | –
CCOC(=O)C(=Cc1cccc([N+](=O)[O-])c1)C(=O)OCC | > 89.1 µM | 8.91 µM | –
COC(=O)C1Cc2c(n(C)c3ccccc23)C(CCC(=O)O)N1Cc1ccccc1 (stereo not given) | – | – | inactive

SMILES | EC50 | IC50 | outcome
N#C/C(=C\c1ccco1)C(N)=O | > 200 µM | > 200 µM | –
O=C(CNc1ccc(Cl)cc1Cl)Nn1c(-c2ccccc2)nc2ccccc2c1=O | > 200 µM | 10.5 µM | –
Cc1ccc(S(=O)(=O)N2CCCSCCSCCCSCC2)cc1 | > 17.8 µM | > 17.8 µM | –
CCOc1ccc(NC(=O)C(=O)C(/C(=N/N)C(=O)OC)c2nc3ccc([N+](=O)[O-])cc3[nH]c2=O)cc1 (stereo not given) | > 14.5 µM | > 14.5 µM | –
Cc1ccc(C)c(C(=O)CC2OC(O)C(Cl)C2Cl)c1 (stereo not given) | > 117 µM | 64.6 µM | –
O=C1c2cc(O)cc(O)c2C(=O)c2c(O)cc(CO)cc21 | – | – | inactive
CCOC1=NC(C(F)(F)F)(C(F)(F)F)N=C(/N=C(/N)N(C)C(C(C)C)P(=O)(OC(C)C)OC(C)C)O1 (stereo not given) | > 200 µM | 31.6 µM | –
S=C(NNC1=NCCCN1)Nc1ccccc1 | > 200 µM | 12.6 µM | –
Cn1c(C(O)(Cc2ccccn2)Cc2ccccn2)cc2ccccc21 | > 97.7 µM | 72.4 µM | –
O=[N+]([O-])c1ccc(-n2nnc(C3=NCCN3)c2-c2ccc(Cl)cc2)cc1 | > 135 µM | > 135 µM | –
CC(C)C1NC(=O)CC(c2ccccc2)N(N=O)C1c1ccccc1 (stereo not given) | > 77.6 µM | > 77.6 µM | –
CCCCCC(=O)NC(=S)Nc1nn[nH]n1 | > 200 µM | > 200 µM | –
O=C(C(Cl)=C(N1CCOCC1)N1CCOCC1)C(Cl)Cl | > 200 µM | 112 µM | –
O=C(O)CNc1c2ccccc2nc2ccccc12 | – | – | inactive
Cn1c(N)c(N=Nc2ccc(S(=O)(=O)Nc3ncccn3)cc2)c(=O)n(C)c1=O | > 200 µM | > 200 µM | –
Nc1cc(Cl)cc2cc(Cl)cnc12 | > 200 µM | 117 µM | –
